Laboratory results as given in article PMC7156458, “Synthetic biology based construction of biological activity-related library of fungal decalin-containing diterpenoid pyrones” (Nature Communications, 2020).

Biological target: Aβ42 (Homo sapiens, UniProt P05067)
Assay: Th-T (thioflavin-T) assay of Aβ42 aggregation
Type: biochemical
Settings: for Th-T fluorescence of Aβ42 (sheet Fig. 7a), mean of three wells: head suffix _50 (concentration 50); for Th-T assay plate reading, mean of three wells (Supplementary Fig. 47): source data, Ab alone and No Ab as controls; for Th-T fluorescence, mean of three wells: Supplementary Fig. 47 source data

Aβ42, sequence (P05067 672-713): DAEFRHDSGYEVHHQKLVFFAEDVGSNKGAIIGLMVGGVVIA

## C=C1CCC2C(C)(CCC=C(C)C)C(O)CCC2(C)C1Cc1c(OC)oc(CO)c(C)c1=O (stereo not drawn) [Compound 12]
Reading M73
  Th-T fluorescence of Aβ42 (sheet Fig. 7a), mean of three wells: 1.414
Reading M74
  Th-T fluorescence of Aβ42 (sheet Fig. 7a), mean of three wells: 1.457
Reading M75
  Th-T fluorescence of Aβ42 (sheet Fig. 7a), mean of three wells: 1.421
Reading M76
  Th-T fluorescence of Aβ42 (sheet Fig. 7a), mean of three wells: 1.415
Reading M77
  Th-T fluorescence of Aβ42 (sheet Fig. 7a), mean of three wells: 1.436
Reading M78
  Th-T fluorescence of Aβ42 (sheet Fig. 7a), mean of three wells: 1.437
Reading M79
  Th-T fluorescence of Aβ42 (sheet Fig. 7a), mean of three wells: 1.425
Reading M80
  Th-T fluorescence of Aβ42 (sheet Fig. 7a), mean of three wells: 1.423
Reading M81
  Th-T fluorescence of Aβ42 (sheet Fig. 7a), mean of three wells: 1.42
Reading M82
  Th-T fluorescence of Aβ42 (sheet Fig. 7a), mean of three wells: 1.419
Reading M83
  Th-T fluorescence of Aβ42 (sheet Fig. 7a), mean of three wells: 1.439
Reading M84
  Th-T fluorescence of Aβ42 (sheet Fig. 7a), mean of three wells: 1.415
Measurement M1
  Th-T assay plate reading, mean of three wells (Supplementary Fig. 47): 0.2937
Measurement M2
  Th-T assay plate reading, mean of three wells (Supplementary Fig. 47): 0.2498
Measurement M3
  Th-T assay plate reading, mean of three wells (Supplementary Fig. 47): 0.2612
Measurement M4
  Th-T assay plate reading, mean of three wells (Supplementary Fig. 47): 0.2666
Measurement M5
  Th-T assay plate reading, mean of three wells (Supplementary Fig. 47): 0.2891
Measurement M6
  Th-T assay plate reading, mean of three wells (Supplementary Fig. 47): 0.324
Measurement M7
  Th-T assay plate reading, mean of three wells (Supplementary Fig. 47): 0.6238
Measurement M8
  Th-T assay plate reading, mean of three wells (Supplementary Fig. 47): 1.342
Measurement M9
  Th-T assay plate reading, mean of three wells (Supplementary Fig. 47): 1.95
Measurement M10
  Th-T assay plate reading, mean of three wells (Supplementary Fig. 47): 2.214
Measurement M11
  Th-T assay plate reading, mean of three wells (Supplementary Fig. 47): 2.313
Measurement M12
  Th-T assay plate reading, mean of three wells (Supplementary Fig. 47): 2.311
Measurement M13
  Th-T assay plate reading, mean of three wells (Supplementary Fig. 47): 2.302
Measurement M14
  Th-T assay plate reading, mean of three wells (Supplementary Fig. 47): 2.328
Measurement M15
  Th-T assay plate reading, mean of three wells (Supplementary Fig. 47): 2.358
Measurement M16
  Th-T assay plate reading, mean of three wells (Supplementary Fig. 47): 2.3929
Reading M107, compound at 10 (head suffix _10)
  Th-T fluorescence, mean of three wells (Fig. 7a): 2.747
Reading M107, compound at 20 (head suffix _20)
  Th-T fluorescence, mean of three wells (Fig. 7a): 2.1149
Reading M107, compound at 50 (head suffix _50)
  Th-T fluorescence, mean of three wells (Fig. 7a): 1.42
Reading M108, compound at 10 (head suffix _10)
  Th-T fluorescence, mean of three wells (Fig. 7a): 2.748
Reading M108, compound at 20 (head suffix _20)
  Th-T fluorescence, mean of three wells (Fig. 7a): 2.099
Reading M108, compound at 50 (head suffix _50)
  Th-T fluorescence, mean of three wells (Fig. 7a): 1.438
Reading M109, compound at 10 (head suffix _10)
  Th-T fluorescence, mean of three wells (Fig. 7a): 2.719
Reading M109, compound at 20 (head suffix _20)
  Th-T fluorescence, mean of three wells (Fig. 7a): 2.112
Reading M109, compound at 50 (head suffix _50)
  Th-T fluorescence, mean of three wells (Fig. 7a): 1.43
Reading M110, compound at 10 (head suffix _10)
  Th-T fluorescence, mean of three wells (Fig. 7a): 2.701
Reading M110, compound at 20 (head suffix _20)
  Th-T fluorescence, mean of three wells (Fig. 7a): 2.0943
Reading M110, compound at 50 (head suffix _50)
  Th-T fluorescence, mean of three wells (Fig. 7a): 1.437
Reading M111, compound at 10 (head suffix _10)
  Th-T fluorescence, mean of three wells (Fig. 7a): 2.678
Reading M111, compound at 20 (head suffix _20)
  Th-T fluorescence, mean of three wells (Fig. 7a): 2.0886
Reading M111, compound at 50 (head suffix _50)
  Th-T fluorescence, mean of three wells (Fig. 7a): 1.44
Reading M112, compound at 10 (head suffix _10)
  Th-T fluorescence, mean of three wells (Fig. 7a): 2.674
Reading M112, compound at 20 (head suffix _20)
  Th-T fluorescence, mean of three wells (Fig. 7a): 2.104
Reading M112, compound at 50 (head suffix _50)
  Th-T fluorescence, mean of three wells (Fig. 7a): 1.449
Reading M113, compound at 10 (head suffix _10)
  Th-T fluorescence, mean of three wells (Fig. 7a): 2.652
Reading M113, compound at 20 (head suffix _20)
  Th-T fluorescence, mean of three wells (Fig. 7a): 2.1068
Reading M113, compound at 50 (head suffix _50)
  Th-T fluorescence, mean of three wells (Fig. 7a): 1.457
Reading M114, compound at 10 (head suffix _10)
  Th-T fluorescence, mean of three wells (Fig. 7a): 2.644
Reading M114, compound at 20 (head suffix _20)
  Th-T fluorescence, mean of three wells (Fig. 7a): 2.09
Reading M114, compound at 50 (head suffix _50)
  Th-T fluorescence, mean of three wells (Fig. 7a): 1.449
Reading M115, compound at 10 (head suffix _10)
  Th-T fluorescence, mean of three wells (Fig. 7a): 2.617
Reading M115, compound at 20 (head suffix _20)
  Th-T fluorescence, mean of three wells (Fig. 7a): 2.12
Reading M115, compound at 50 (head suffix _50)
  Th-T fluorescence, mean of three wells (Fig. 7a): 1.466
Reading M116, compound at 10 (head suffix _10)
  Th-T fluorescence, mean of three wells (Fig. 7a): 2.617
Reading M116, compound at 20 (head suffix _20)
  Th-T fluorescence, mean of three wells (Fig. 7a): 2.1099
Reading M116, compound at 50 (head suffix _50)
  Th-T fluorescence, mean of three wells (Fig. 7a): 1.496
Reading M117, compound at 10 (head suffix _10)
  Th-T fluorescence, mean of three wells (Fig. 7a): 2.5929
Reading M117, compound at 20 (head suffix _20)
  Th-T fluorescence, mean of three wells (Fig. 7a): 2.13
Reading M117, compound at 50 (head suffix _50)
  Th-T fluorescence, mean of three wells (Fig. 7a): 1.473
Reading M118, compound at 10 (head suffix _10)
  Th-T fluorescence, mean of three wells (Fig. 7a): 2.576
Reading M118, compound at 20 (head suffix _20)
  Th-T fluorescence, mean of three wells (Fig. 7a): 2.113
Reading M118, compound at 50 (head suffix _50)
  Th-T fluorescence, mean of three wells (Fig. 7a): 1.488
Reading M119, compound at 10 (head suffix _10)
  Th-T fluorescence, mean of three wells (Fig. 7a): 2.572
Reading M119, compound at 20 (head suffix _20)
  Th-T fluorescence, mean of three wells (Fig. 7a): 2.161
Reading M119, compound at 50 (head suffix _50)
  Th-T fluorescence, mean of three wells (Fig. 7a): 1.496
Reading M120, compound at 10 (head suffix _10)
  Th-T fluorescence, mean of three wells (Fig. 7a): 2.541
Reading M120, compound at 20 (head suffix _20)
  Th-T fluorescence, mean of three wells (Fig. 7a): 2.1524
Reading M120, compound at 50 (head suffix _50)
  Th-T fluorescence, mean of three wells (Fig. 7a): 1.517
Reading M121, compound at 10 (head suffix _10)
  Th-T fluorescence, mean of three wells (Fig. 7a): 2.53
Reading M121, compound at 20 (head suffix _20)
  Th-T fluorescence, mean of three wells (Fig. 7a): 2.137
Reading M121, compound at 50 (head suffix _50)
  Th-T fluorescence, mean of three wells (Fig. 7a): 1.531
Reading M122, compound at 10 (head suffix _10)
  Th-T fluorescence, mean of three wells (Fig. 7a): 2.517
Reading M122, compound at 20 (head suffix _20)
  Th-T fluorescence, mean of three wells (Fig. 7a): 2.124
Reading M122, compound at 50 (head suffix _50)
  Th-T fluorescence, mean of three wells (Fig. 7a): 1.501
Reading M123, compound at 10 (head suffix _10)
  Th-T fluorescence, mean of three wells (Fig. 7a): 2.493
Reading M123, compound at 20 (head suffix _20)
  Th-T fluorescence, mean of three wells (Fig. 7a): 2.112
Reading M123, compound at 50 (head suffix _50)
  Th-T fluorescence, mean of three wells (Fig. 7a): 1.514
Reading M124, compound at 10 (head suffix _10)
  Th-T fluorescence, mean of three wells (Fig. 7a): 2.48
Reading M124, compound at 20 (head suffix _20)
  Th-T fluorescence, mean of three wells (Fig. 7a): 2.17
Reading M124, compound at 50 (head suffix _50)
  Th-T fluorescence, mean of three wells (Fig. 7a): 1.559
Reading M125, compound at 10 (head suffix _10)
  Th-T fluorescence, mean of three wells (Fig. 7a): 2.466
Reading M125, compound at 20 (head suffix _20)
  Th-T fluorescence, mean of three wells (Fig. 7a): 2.169
Reading M125, compound at 50 (head suffix _50)
  Th-T fluorescence, mean of three wells (Fig. 7a): 1.553
Reading M126, compound at 10 (head suffix _10)
  Th-T fluorescence, mean of three wells (Fig. 7a): 2.458
Reading M126, compound at 20 (head suffix _20)
  Th-T fluorescence, mean of three wells (Fig. 7a): 2.184
Reading M126, compound at 50 (head suffix _50)
  Th-T fluorescence, mean of three wells (Fig. 7a): 1.559
Reading M127, compound at 10 (head suffix _10)
  Th-T fluorescence, mean of three wells (Fig. 7a): 2.439
Reading M127, compound at 20 (head suffix _20)
  Th-T fluorescence, mean of three wells (Fig. 7a): 2.22
Reading M127, compound at 50 (head suffix _50)
  Th-T fluorescence, mean of three wells (Fig. 7a): 1.57
Reading M128, compound at 10 (head suffix _10)
  Th-T fluorescence, mean of three wells (Fig. 7a): 2.428
Reading M128, compound at 20 (head suffix _20)
  Th-T fluorescence, mean of three wells (Fig. 7a): 2.151
Reading M128, compound at 50 (head suffix _50)
  Th-T fluorescence, mean of three wells (Fig. 7a): 1.57
time-course reading M97
  Th-T fluorescence, mean of three wells: 2.083
time-course reading M98
  Th-T fluorescence, mean of three wells: 2.088
time-course reading M99
  Th-T fluorescence, mean of three wells: 2.073
time-course reading M100
  Th-T fluorescence, mean of three wells: 2.078
time-course reading M101
  Th-T fluorescence, mean of three wells: 2.074
time-course reading M102
  Th-T fluorescence, mean of three wells: 2.082
time-course reading M103
  Th-T fluorescence, mean of three wells: 2.066
time-course reading M104
  Th-T fluorescence, mean of three wells: 2.071
time-course reading M105
  Th-T fluorescence, mean of three wells: 2.058
time-course reading M106
  Th-T fluorescence, mean of three wells: 2.067
time-course reading M107
  Th-T fluorescence, mean of three wells: 2.067
time-course reading M108
  Th-T fluorescence, mean of three wells: 2.064
time-course reading M109
  Th-T fluorescence, mean of three wells: 2.047
time-course reading M110
  Th-T fluorescence, mean of three wells: 2.071
time-course reading M111
  Th-T fluorescence, mean of three wells: 2.087
time-course reading M112
  Th-T fluorescence, mean of three wells: 2.064
time-course reading M113
  Th-T fluorescence, mean of three wells: 2.068
time-course reading M114
  Th-T fluorescence, mean of three wells: 2.053
time-course reading M115
  Th-T fluorescence, mean of three wells: 2.069
time-course reading M116
  Th-T fluorescence, mean of three wells: 2.057
